Some test systems named below: UACC-257 melanoma; SF-268 CNS; EKVX NSCLC; HCT-116 colon; TK-10 renal; HS 578T breast; HL-60(TB) leukemia; HOP-62 NSCLC; LOX IMVI melanoma; K-562 leukemia.
What all share (experiment): NCI tumour cell line growth inhibition, 48 h

Molecules are shown by their SMILES. “And” between values parts separate entries of the source, which are not always exact repeats. Equal values may be shown once.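 Test compounds were applied to cells in 96-well plates for 48 hours at 5 doses. At the GI50, growth is halved. The concentration for full growth arrest is given as TGI.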

Consider `CC[N+](CC)=c1sc2c(s1)C(c1ccc(Cl)cc1)Oc1ccc(Cl)cc1-2` (centres undefined), for which the GI50 with UACC-257 melanoma was 2.33 µM; in the assay on SF-268 CNS it was 0.461 µM; in the assay with EKVX NSCLC, 1.96 µM; in the assay with HCT-116 colon, 0.568 µM; in the assay on TK-10 renal it was 3.38 µM; in the assay on HS 578T breast it was 1.43 µM. Besides, the GI50 in the assay on HL-60(TB) leukemia is 2.22 µM; with HOP-62 NSCLC, 1.22 µM; in the assay with LOX IMVI melanoma, 1.51 µM; with K-562 leukemia it was 0.917 µM. Besides, the TGI was determined as 5.46 µM in the assay with UACC-257 melanoma; 2.08 µM in the assay with SF-268 CNS; 9.53 µM in the assay with EKVX NSCLC; 1.89 µM with HCT-116 colon; 6.61 µM with TK-10 renal; 5.59 µM with HS 578T breast. Also, the TGI with HL-60(TB) leukemia was 5.98 µM; with HOP-62 NSCLC, 5.56 µM; in the assay with LOX IMVI melanoma it was 3.22 µM; with K-562 leukemia, 10.3 µM.
Regarding `Cc1nc(SCC(=O)Nc2nc(-c3ccc(Cl)cc3)cs2)n(Nc2ccccc2)c1C`, the GI50 in the assay on UACC-257 melanoma was 3.07 µM; in the assay with SF-268 CNS, 4.8 µM; in the assay with EKVX NSCLC it was 1.84 µM; in the assay on HCT-116 colon, 1.84 µM; in the assay on TK-10 renal, 3.65 µM; in the assay with HS 578T breast, 3.42 µM. The GI50 is 2.99 µM with HL-60(TB) leukemia, 3.06 µM with HOP-62 NSCLC, 1.78 µM with LOX IMVI melanoma and 0.12 µM in the assay with K-562 leukemia. Also, the TGI is 17 µM with UACC-257 melanoma; 20.1 µM in the assay with SF-268 CNS; 12.2 µM in the assay with EKVX NSCLC; 4.62 µM with HCT-116 colon; 13.8 µM in the assay on TK-10 renal; 21.6 µM with HS 578T breast. For the same compound, the TGI in the assay on HL-60(TB) leukemia was greater than 100 µM; with HOP-62 NSCLC it was 9.63 µM; with LOX IMVI melanoma, 3.72 µM; in the assay with K-562 leukemia, greater than 100 µM.
For the compound `CC(=O)OCC1OC(n2c(-c3ccc(Cl)cc3)ccc(C#N)c2=S)C(OC(C)=O)C(OC(C)=O)C1OC(C)=O` (centres undefined), the TGI with UACC-257 melanoma was greater than 100 µM; in the assay on SF-268 CNS, greater than 100 µM; with EKVX NSCLC, > 82.9 µM and 80.1 µM; with HCT-116 colon, greater than 100 µM; in the assay on TK-10 renal, 64.1 µM and > 100 µM; with HS 578T breast, 67.3 µM and > 100 µM. The TGI is greater than 100 µM in the assay with HL-60(TB) leukemia; 26.1 µM and > 100 µM in the assay with HOP-62 NSCLC; greater than 100 µM in the assay on LOX IMVI melanoma; greater than 100 µM in the assay with K-562 leukemia. The GI50 was 5.5 µM and 34.9 µM with SF-268 CNS; 29.4 µM and 62.3 µM in the assay on TK-10 renal; 5.34 µM and 23.8 µM in the assay on HS 578T breast.
Regarding `C=C1C(O)C2C(=C(CCc3ccccc3)C13CC3)C(=O)C(C)(CO)C2O` (centres undefined), the GI50 in the assay with UACC-257 melanoma was greater than 100 µM; with SF-268 CNS, greater than 100 µM; in the assay on EKVX NSCLC, greater than 100 µM; with TK-10 renal, 57.4 µM; in the assay on HS 578T breast, 14.3 µM; in the assay with HL-60(TB) leukemia, 81.9 µM. In addition, the GI50 in the assay with HOP-62 NSCLC, in the assay with LOX IMVI melanoma and in the assay with K-562 leukemia was greater than 100 µM each time. Also, the TGI in the assay with UACC-257 melanoma is greater than 100 µM; with SF-268 CNS, greater than 100 µM; in the assay with EKVX NSCLC, greater than 100 µM; in the assay with TK-10 renal, greater than 100 µM; in the assay with HS 578T breast it was 99.8 µM; with HL-60(TB) leukemia, greater than 100 µM. Further, the TGI in the assay on HOP-62 NSCLC, in the assay with LOX IMVI melanoma and in the assay on K-562 leukemia was greater than 100 µM in each case.
Take `C=C(C)C(=O)O[C@H]1C[C@@]23O[C@@H]2CCC(=C[C@H]2OC(=O)C(=C)[C@H]12)COC3O` (some centres undefined): the TGI was greater than 100 µM with UACC-257 melanoma; greater than 100 µM in the assay on SF-268 CNS; greater than 100 µM with EKVX NSCLC; 37.5 µM in the assay on HCT-116 colon; greater than 100 µM in the assay on TK-10 renal; greater than 100 µM with HS 578T breast. Moreover, the TGI with HL-60(TB) leukemia was 48.3 µM; with HOP-62 NSCLC, greater than 100 µM; in the assay on LOX IMVI melanoma, 30.5 µM; in the assay with K-562 leukemia it was 44 µM.
On to `COc1cc(-c2cc3ncccc3c3nc(N)c4cccnc4c23)cc(OC)c1OC`, for which the GI50 in the assay with UACC-257 melanoma is 2.08 µM; in the assay with SF-268 CNS it was 0.752 µM; with EKVX NSCLC, 0.763 µM; in the assay with TK-10 renal, 1.15 µM; with HS 578T breast, 0.692 µM; with HL-60(TB) leukemia it was 0.217 µM. Besides, the GI50 in the assay on HOP-62 NSCLC is 0.599 µM; with LOX IMVI melanoma, 0.482 µM; with K-562 leukemia, 0.169 µM. Also, the TGI in the assay with UACC-257 melanoma is 44.7 µM; in the assay with SF-268 CNS it was greater than 100 µM; in the assay with EKVX NSCLC it was 50.4 µM; in the assay on TK-10 renal, 9.29 µM; in the assay with HS 578T breast, greater than 100 µM; in the assay on HL-60(TB) leukemia, 0.717 µM. Besides, the results for the TGI in the assay on HOP-62 NSCLC, in the assay on LOX IMVI melanoma and in the assay on K-562 leukemia were 87.1 µM, 15.7 µM and 14.5 µM, respectively.
Take `CCOC(=O)c1sc(-c2ccc(OS(=O)(=O)c3ccc(Br)s3)c(C=O)c2)nc1C`: the GI50 is 18.6 µM in the assay with UACC-257 melanoma; 3.01 µM in the assay on SF-268 CNS; 14.3 µM in the assay with EKVX NSCLC; 1.89 µM in the assay on HCT-116 colon; 2.83 µM in the assay with TK-10 renal; 10.6 µM in the assay on HS 578T breast. Moreover, the GI50 in the assay on HL-60(TB) leukemia is 3.66 µM; in the assay on HOP-62 NSCLC, 3.3 µM; in the assay on LOX IMVI melanoma, 2.9 µM; with K-562 leukemia it was 3.17 µM. Moreover, the TGI with UACC-257 melanoma was found to be 64.7 µM; in the assay on SF-268 CNS it was 13.2 µM; in the assay with EKVX NSCLC, 54.1 µM; in the assay on HCT-116 colon, 3.95 µM; in the assay with TK-10 renal, 8.96 µM; in the assay with HS 578T breast, 36.3 µM. In addition, the TGI with HL-60(TB) leukemia was 19.7 µM; with HOP-62 NSCLC it was 12.5 µM; in the assay on LOX IMVI melanoma, 8.52 µM; in the assay with K-562 leukemia it was greater than 100 µM.
Consider `COc1cc(/C=C2\C(=O)Nc3cc(C)c(O)cc32)cc(OC)c1OC`, for which the GI50 is 13.5 µM in the assay on UACC-257 melanoma; 5.34 µM in the assay on SF-268 CNS; 4.08 µM in the assay on EKVX NSCLC; 4.07 µM in the assay with HCT-116 colon; 12.8 µM in the assay with TK-10 renal; 2.18 µM in the assay on HS 578T breast. The GI50 in the assay with HL-60(TB) leukemia is 1.74 µM; with HOP-62 NSCLC, 11.7 µM; in the assay on LOX IMVI melanoma, 3.66 µM; in the assay with K-562 leukemia it was 1.67 µM. Besides, the TGI worked out at 42.7 µM in the assay on UACC-257 melanoma; 36 µM in the assay on SF-268 CNS; 39 µM with EKVX NSCLC; 15.8 µM in the assay on HCT-116 colon; 40.4 µM with TK-10 renal; 9.93 µM in the assay on HS 578T breast. Besides, the TGI stood at 5.84 µM in the assay with HL-60(TB) leukemia, 37.4 µM in the assay with HOP-62 NSCLC, 14.4 µM in the assay on LOX IMVI melanoma and 10.4 µM in the assay with K-562 leukemia.

(Values after PubChem BioAssay (NCI).)
